# Literature values in US20240335390A9, “PHARMACEUTICAL COMPOSITIONS OF AMORPHOUS SOLID DISPERSIONS AND METHODS OF PREPARATION THEREOF” (Shenzhen Pharmacin Co., Ltd., priority 2020, published 2024).
# Where two headings read alike, the source gives them in different places.
# Legend:
# [1] = cited from earlier work
# EGFR autophosphorylation = details: in vitro; cited from earlier work
# HER2 autophosphorylation = details: in vitro; cited from earlier work
# MAPK signaling pathway = details: in vitro; cited from earlier work
# AKT signaling pathway = details: in vitro; cited from earlier work
# [2] = tested on: EGFR and/or HER2 expressing carcinoma cell lines; details: in vitro; cited from earlier work
# [3] = second value listed in the cell
compound,measurement,setting,value
Cc1nc(NC(=O)N2CCC[C@H]2C(N)=O)sc1-c1ccnc(C(C)(C)C(F)(F)F)c1 [Alpelisib],Measured or Calculated pKas,[1]; first value listed in the cell,3.3
same,Measured or Calculated pKas,[1]; [3],9.4
CC1(C)S[C@@H]2[C@H](NC(=O)[C@H](N)c3ccc(O)cc3)C(=O)N2[C@H]1C(=O)O [Amoxicillin],Measured or Calculated pKas,[1]; first value listed in the cell,3.39
same,Measured or Calculated pKas,[1]; [3],6.71
Cn1cc(-c2cc3c(N4CCN(c5ncc([C@@](C)(N)c6ccc(F)cc6)cn5)CC4)ncnn3c2)cn1 [Avapritinib],Measured or Calculated pKas,[1]; first value listed in the cell,6.97
same,Measured or Calculated pKas,[1]; fourth value listed in the cell,1.51
same,Measured or Calculated pKas,[1]; [3],4.57
same,Measured or Calculated pKas,[1]; third value listed in the cell,3.50
CCC(C(=O)O)c1ccc(CC(C)C)cc1 (stereo not shown) [Butibufen],Measured or Calculated pKas,[1]; first value listed in the cell,4.64
CC(C(=O)O)c1ccc2c(c1)[nH]c1ccc(Cl)cc12 (stereo not shown) [Carprofen],Measured or Calculated pKas,[1]; first value listed in the cell,4.63
CN(C)[C@@H]1C(O)=C(C(N)=O)C(=O)[C@@]2(O)C(O)=C3C(=O)c4c(O)ccc(Cl)c4[C@@](C)(O)[C@H]3C[C@@H]12 [Chlortetracycline],Measured or Calculated pKas,[1]; first value listed in the cell,3.33 ± 0.30
same,Measured or Calculated pKas,[1]; [3],7.55 ± 0.02
CC[C@H]1OC(=O)[C@H](C)[C@@H](O[C@H]2C[C@@](C)(OC)[C@@H](O)[C@H](C)O2)[C@H](C)[C@@H](O[C@@H]2O[C@H](C)C[C@H](N(C)C)[C@H]2O)[C@](C)(OC)C[C@@H](C)C(=O)[C@H](C)[C@@H](O)[C@]1(C)O [Clarithromycin],Measured or Calculated pKas,[1]; first value listed in the cell,7.25
CN1C[C@@H]2C[C@H]1CN2c1cc2c(cc1F)c(=O)c(C(=O)O)cn2C1CC1 [Danofloxacin],Measured or Calculated pKas,[1]; first value listed in the cell,6.07 ± 0.06
same,Measured or Calculated pKas,[1]; [3],8.56 ± 0.07
CC(O)c1cc(C(=O)N[C@@H](C)Cn2ccc(-c3ccc(C#N)c(Cl)c3)n2)[nH]n1 (stereo partly shown) [Darolutamide],Measured or Calculated pKas,[1]; first value listed in the cell,11.75
CN(C)[C@@H]1C(O)=C(C(N)=O)C(=O)[C@@]2(O)C(O)=C3C(=O)c4c(O)ccc(Cl)c4[C@@H](O)[C@H]3C[C@@H]12 [Demeclocycline],Measured or Calculated pKas,[1]; first value listed in the cell,3.37 ± 0.30
same,Measured or Calculated pKas,[1]; [3],7.36 ± 0.03
O=C(O)Cc1ccccc1Nc1c(Cl)cccc1Cl [Diclofenac],Measured or Calculated pKas,[1]; first value listed in the cell,4.16
CN1CCN(c2cc3c(cc2F)c(=O)c(C(=O)O)cn3-c2ccc(F)cc2)CC1 [Difloxacin],Measured or Calculated pKas,[1]; first value listed in the cell,5.66 ± 0.04
same,Measured or Calculated pKas,[1]; [3],7.24 ± 0.06
C[C@H]1c2cccc(O)c2C(=O)C2=C(O)[C@]3(O)C(=O)C(C(N)=O)=C(O)[C@@H](N(C)C)[C@@H]3[C@@H](O)[C@@H]21 [Doxycycline],Measured or Calculated pKas,[1]; first value listed in the cell,3.02 ± 0.30
same,Measured or Calculated pKas,[1]; [3],7.97 ± 0.15
CCn1cc(C(=O)O)c(=O)c2cc(F)c(N3CCNCC3)nc21 [Enoxacin],Measured or Calculated pKas,[1]; first value listed in the cell,5.05 ± 0.08
same,Measured or Calculated pKas,[1]; [3],6.25 ± 0.05
CCN1CCN(c2cc3c(cc2F)c(=O)c(C(=O)O)cn3C2CC2)CC1 [Enrofloxacin],Measured or Calculated pKas,[1]; first value listed in the cell,5.88 ± 0.03
same,Measured or Calculated pKas,[1]; [3],7.74 ± 0.03
CNC(=O)c1ccc(N2C(=S)N(c3ccc(C#N)c(C(F)(F)F)c3)C(=O)C2(C)C)cc1F [Enzalutamide],Measured or Calculated pKas,[1]; first value listed in the cell,3-11
C#Cc1cccc(Nc2ncnc3cc(OCCOC)c(OCCOC)cc23)c1.Cl [Erlotinib],Measured or Calculated pKas,[1]; first value listed in the cell,5.4
CN1CCN(c2c(F)cc3c(=O)c(C(=O)O)cn(CCF)c3c2F)CC1 [Fleroxacin],Measured or Calculated pKas,[1]; first value listed in the cell,5.46
same,Measured or Calculated pKas,[1]; [3],8.00
CC(C(=O)O)c1ccc(-c2ccccc2)c(F)c1 (stereo not shown) [Flurbiprofen],Measured or Calculated pKas,[1]; first value listed in the cell,4.35
COc1cc2ncnc(Nc3ccc(F)c(Cl)c3)c2cc1OCCCN1CCOCC1 [Gefitinib],Measured or Calculated pKas,[1]; first value listed in the cell,7.2
CC(C)Cc1ccc(C(C)C(=O)O)cc1 (stereo not shown) [Ibuprofen],Measured or Calculated pKas,[1]; first value listed in the cell,4.51
CC(CCc1ccccc1)NCC(O)c1ccc(O)c(C(N)=O)c1 (stereo not shown) [Labetalol],Measured or Calculated pKas,[1]; first value listed in the cell,7.35
CN1CCN(c2c(F)cc3c(=O)c(C(=O)O)cn4c3c2OCN4C)CC1 [Marbofloxacin],Measured or Calculated pKas,[1]; first value listed in the cell,5.69 ± 0.10
same,Measured or Calculated pKas,[1]; [3],8.02 ± 0.20
C=C1c2c(Cl)ccc(O)c2C(=O)C2=C(O)[C@]3(O)C(=O)C(C(N)=O)=C(O)[C@@H](N(C)C)[C@@H]3[C@@H](O)[C@H]12 [Meclocycline],Measured or Calculated pKas,[1]; first value listed in the cell,4.05 ± 0.30
same,Measured or Calculated pKas,[1]; [3],6.87 ± 0.39
"CCOc1cc2ncc(C#N)c(Nc3ccc(OCc4ccccn4)c(Cl)c3)c2cc1NC(=O)/C=C/CN(C)C [Neratinib, neratinib]",EGFR autophosphorylation,EGFR autophosphorylation,reduces
same,HER2 autophosphorylation,HER2 autophosphorylation,reduces
same,downstream MAPK signaling pathway,MAPK signaling pathway,reduces
same,downstream AKT signaling pathway,AKT signaling pathway,reduces
same,antitumor activity in carcinoma cell lines,[2],showed antitumor activity
CC1COc2c(N3CCN(C)CC3)c(F)cc3c(=O)c(C(=O)O)cn1c23 (stereo not shown) [Ofloxacin],Measured or Calculated pKas,[1]; first value listed in the cell,6.22 ± 0.05
same,Measured or Calculated pKas,[1]; [3],7.81 ± 0.08
COc1ccc2[nH]c([S+]([O-])Cc3ncc(C)c(OC)c3C)nc2c1 (stereo not shown) [Omeprazole],Measured or Calculated pKas,[1]; first value listed in the cell,4.14
same,Measured or Calculated pKas,[1]; [3],8.90
C=CCOc1ccccc1OCC(O)CNC(C)C (stereo not shown) [Oxprenolol],Measured or Calculated pKas,[1]; first value listed in the cell,9.62
CN(C)[C@@H]1C(O)=C(C(N)=O)C(=O)[C@@]2(O)C(O)=C3C(=O)c4c(O)cccc4[C@@](C)(O)[C@H]3[C@H](O)[C@@H]12 [Oxytetracycline],Measured or Calculated pKas,[1]; first value listed in the cell,3.04
same,Measured or Calculated pKas,[1]; [3],8.00
Cc1ccc(Nc2nccc(N(C)c3ccc4c(C)n(C)nc4c3)n2)cc1S(N)(=O)=O.Cl [Pazopanib HCL],Measured or Calculated pKas,[1]; first value listed in the cell,2.1
same,Measured or Calculated pKas,[1]; [3],6.4
same,Measured or Calculated pKas,[1]; third value listed in the cell,10.2
CCn1cc(C(=O)O)c(=O)c2cnc(N3CCNCC3)nc21 [Pipemidic acid],Measured or Calculated pKas,[1]; first value listed in the cell,5.42 ± 0.05
same,Measured or Calculated pKas,[1]; [3],8.18 ± 0.09
CC(=O)Nc1ccc(OCC(O)CNC(C)C)cc1 (stereo not shown) [Practolol],Measured or Calculated pKas,[1]; first value listed in the cell,9.41
CCN(CC)CCOC(=O)c1ccc(N)cc1 [Procaine],Measured or Calculated pKas,[1]; first value listed in the cell,2.28 ± 0.08
same,Measured or Calculated pKas,[1]; [3],9.02 ± 0.01
CC(C)NCC(O)COc1cccc2ccccc12 (stereo not shown) [Propranolol],Measured or Calculated pKas,[1]; first value listed in the cell,9.49 ± 0.2
CC[C@H]1OC(=O)[C@H](C)[C@@H](OC2C[C@@](C)(OC)C(O)C(C)O2)[C@H](C)[C@@H](O[C@@H]2OC(C)CC(N(C)C)C2O)[C@](C)(O)C[C@@H](C)/C(=N\OCOCCOC)[C@H](C)[C@@H](O)[C@]1(C)O (stereo partly shown) [Roxithromycin],Measured or Calculated pKas,[1]; first value listed in the cell,9.17 ± 0.30
O=C(O)c1cn(-c2ccc(F)cc2)c2cc(N3CCNCC3)c(F)cc2c1=O [Sarafloxacin],Measured or Calculated pKas,[1]; first value listed in the cell,5.62 ± 0.08
same,Measured or Calculated pKas,[1]; [3],8.18 ± 0.09
CC(=O)NS(=O)(=O)c1ccc(N)cc1 [Sulfacetamide],Measured or Calculated pKas,[1]; first value listed in the cell,1.95 ± 0.11
same,Measured or Calculated pKas,[1]; [3],5.30 ± 0.05
Nc1ccc(S(=O)(=O)Nc2ccc(Cl)nn2)cc1 [Sulfachlorpyridazine],Measured or Calculated pKas,[1]; first value listed in the cell,1.87 ± 0.30
same,Measured or Calculated pKas,[1]; [3],5.45 ± 0.06
Nc1ccc(S(=O)(=O)Nc2ncccn2)cc1 [Sulfadiazine],Measured or Calculated pKas,[1]; first value listed in the cell,2.10
same,Measured or Calculated pKas,[1]; [3],6.28
[H]/N=C(/N)NS(=O)(=O)c1ccc(N)cc1 [Sulfaguanidine],Measured or Calculated pKas,[1]; first value listed in the cell,1.55
same,Measured or Calculated pKas,[1]; [3],11.24
Cc1ccnc(NS(=O)(=O)c2ccc(N)cc2)n1 [Sulfamerazine],Measured or Calculated pKas,[1]; first value listed in the cell,2.17
same,Measured or Calculated pKas,[1]; [3],6.77
Cc1cc(C)nc(NS(=O)(=O)c2ccc(N)cc2)n1 [Sulfamethazine],Measured or Calculated pKas,[1]; first value listed in the cell,2.28
same,Measured or Calculated pKas,[1]; [3],7.42
Cc1nnc(NS(=O)(=O)c2ccc(N)cc2)s1 [Sulfamethizole],Measured or Calculated pKas,[1]; first value listed in the cell,1.86 ± 0.30
same,Measured or Calculated pKas,[1]; [3],5.29 ± 0.04
Nc1ccc(S(=O)(=O)Nc2nccs2)cc1 [Sulfathiazole],Measured or Calculated pKas,[1]; first value listed in the cell,2.08
same,Measured or Calculated pKas,[1]; [3],7.07
CC(C)(C)NC[C@H](O)COc1nsnc1N1CCOCC1 [Timolol],Measured or Calculated pKas,[1]; first value listed in the cell,9.34
COc1cc(Cc2cnc(N)nc2N)cc(OC)c1OC [Trimethoprim],Measured or Calculated pKas,[1]; first value listed in the cell,3.23 ± 0.30
same,Measured or Calculated pKas,[1]; [3],6.76 ± 0.12
Fenbufen,Measured or Calculated pKas,[1]; first value listed in the cell,4.56
Tylosin,Measured or Calculated pKas,[1]; first value listed in the cell,3.31 ± 0.30
same,Measured or Calculated pKas,[1]; [3],7.50 ± 0.13
